Measured values from patent publication US20220177508A1, “C10-Cyclic Substituted 13-Membered Macrolides and Uses Thereof” (Zikani Therapeutics, Inc., priority 2018, published 2022).
In brackets after ≈: the same amount, converted by molar mass.

Legend:
Assay type in all cases: cell-based
A. baumannii MP-15 = assay: Broth dilution MIC determination (CLSI), A. baumannii MP-15; conditions: Acinetobacter baumannii, MP15; strain MP-15, broth dilution; read-out: MIC A. baumanii MP-15
S. aureus MP-12 = assay: Broth dilution MIC determination (CLSI), S. aureus MP-12; conditions: Staphylococcus aureus, MP12; strain MP-12, broth dilution
P. aeruginosa MP-3 = assay: Broth dilution MIC determination (CLSI), P. aeruginosa MP-3; conditions: Pseudomonas aeruginosa, MP3; strain MP-3, broth dilution
E. coli MP-4 = assay: Broth dilution MIC determination (CLSI), E. coli MP-4; conditions: Escherichia coli, MP4; strain MP-4, broth dilution; read-out: MIC E. coli MP-4
K. pneumoniae MP-546 = assay: Broth dilution MIC determination (CLSI), K. pneumoniae MP-546; conditions: Klebsiella pneumoniae, MP546; strain MP-546, broth dilution

SMILES | MIC (A. baumannii MP-15) | MIC (S. aureus MP-12) | MIC (P. aeruginosa MP-3) | MIC (E. coli MP-4) | MIC (K. pneumoniae MP-546)
CCN(C)[C@H]1CC[C@H]([C@H]2COC(=O)C(C)(C)C(=O)[C@H](C)[C@@H](O[C@@H]3O[C@H](C)C[C@H](N(C)C)[C@H]3O)[C@](C)(OC)C[C@@H](C)CN2C)CC1 [Compound 157, (3S,6R,8R,9R,10R)-9-(((2S,3R,4S,6R)-4-(dimethylamino)-3-hydroxy-6-methyltetrahydro-2H-pyran-2-yl)oxy)-3-((1r,4S)-4-(ethyl(methyl)amino)cyclohexyl)-8-methoxy-4,6,8,10,12,12-hexamethyl-1-oxa-4-azacyclotridecane-11,13-dione] | > 32 µg/mL | > 32 µg/mL | > 32 µg/mL | 4 to 32 µg/mL (≈ 6.25 to 50 µM) | 4 to 32 µg/mL (≈ 6.25 to 50 µM)
CO[C@]1(C)C[C@@H](C)CN(C)[C@H](C2CN(C(=O)CN3CC(F)(F)C3)C2)COC(=O)C(C)(C)C(=O)[C@H](C)[C@H]1O[C@@H]1O[C@H](C)C[C@H](N(C)C)[C@H]1O [Compound 154, (3R,6R,8R,9R,10R)-3-(1-(2-(3,3-difluoroazetidin-1-yl)acetyl)azetidin-3-yl)-9-(((2S,3R,4S,6R)-4-(dimethylamino)-3-hydroxy-6-methyltetrahydro-2H-pyran-2-yl)oxy)-8-methoxy-4,6,8,10,12,12-hexamethyl-1-oxa-4-azacyclotridecane-11,13-dione] | > 32 µg/mL | 4 to 32 µg/mL (≈ 5.81 to 46.5 µM) | > 32 µg/mL | < 4 µg/mL | 4 to 32 µg/mL (≈ 5.81 to 46.5 µM)
CO[C@]1(C)C[C@@H](C)CN(C)[C@H](C2CCN(C(=O)CN(C)C)CC2)COC(=O)C(C)(C)C(=O)[C@H](C)[C@H]1O[C@@H]1O[C@H](C)C[C@H](N(C)C)[C@H]1O [Compound 85, (3R,6R,8R,9R,10R)-9-(((2S,3R,4S,6R)-4-(dimethylamino)-3-hydroxy-6-methyltetrahydro-2H-pyran-2-yl)oxy)-3-(1-(dimethylglycyl)piperidin-4-yl)-8-methoxy-4,6,8,10,12,12-hexamethyl-1-oxa-4-azacyclotridecane-11,13-dione] | > 32 µg/mL | > 32 µg/mL | > 32 µg/mL | < 4 µg/mL | 4 to 32 µg/mL (≈ 5.98 to 47.8 µM)
CO[C@]1(C)C[C@@H](C)CN(C)[C@H](C2CC3CCC(C2)N3CC(C)C)COC(=O)C(C)(C)C(=O)[C@H](C)[C@H]1O[C@@H]1O[C@H](C)C[C@H](N(C)C)[C@H]1O (stereo partly drawn) [Compound 87, (3R,6R,8R,9R,10R)-9-(((2S,3R,4S,6R)-4-(dimethylamino)-3-hydroxy-6-methyltetrahydro-2H-pyran-2-yl)oxy)-3-(8-isobutyl-8-azabicyclo[3.2.1]octan-3-yl)-8-methoxy-4,6,8,10,12,12-hexamethyl-1-oxa-4-azacyclotridecane-11,13-dione] | > 32 µg/mL | < 4 µg/mL | > 32 µg/mL | < 4 µg/mL | 4 to 32 µg/mL (≈ 6.01 to 48.1 µM)
CO[C@]1(C)C[C@@H](C)CN[C@H](c2ccccc2)COC(=O)[C@H](C)C(=O)[C@H](C)[C@H]1O[C@@H]1OC(C)CC(N(C)C)C1O (stereo partly shown) [Compound 204] | > 32 µg/mL | > 32 µg/mL | > 32 µg/mL | > 32 µg/mL | > 32 µg/mL
CO[C@]1(C)C[C@@H](C)CN(C)[C@@H](C2CCN(C[C@@H](N)CO)CC2)CO[C@@H](O)C(C)(C)C(=O)[C@H](C)[C@H]1O[C@@H]1O[C@H](C)C[C@H](N(C)C)[C@H]1O [Compound 199] | > 32 µg/mL | 4 to 32 µg/mL (≈ 6.07 to 48.6 µM) | > 32 µg/mL | < 4 µg/mL | < 4 µg/mL
CO[C@]1(C)C[C@@H](C)CN(C)[C@H](c2ccc(-c3cccc(N)c3)cc2)COC(=O)C(C)(C)C(=O)[C@H](C)[C@H]1O[C@@H]1O[C@H](C)C[C@H](N(C)C)[C@H]1O [Compound 93, (3R,6R,8R,9R,10R)-3-(3′-Amino-[1,1′-biphenyl]-4-yl)-9-(((2S,3R,4S,6R)-4-(dimethylamino)-3-hydroxy-6-methyltetrahydro-2H-pyran-2-yl)oxy)-8-methoxy-4,6,8,10,12,12-hexamethyl-1-oxa-4-azacyclotridecane-11,13-dione] | > 32 µg/mL | 4 to 32 µg/mL (≈ 5.99 to 47.9 µM) | > 32 µg/mL | 4 to 32 µg/mL (≈ 5.99 to 47.9 µM) | > 32 µg/mL
CO[C@]1(C)C[C@@H](C)CN(C)[C@H]([C@@H]2CCN(CC(C)C)C2)COC(=O)C(C)(C)C(=O)[C@H](C)[C@H]1O[C@@H]1O[C@H](C)C[C@H](N(C)C)[C@H]1O [Compound 123, (3R,6R,8R,9R,10R)-9-(((2S,3R,4S,6R)-4-(dimethylamino)-3-hydroxy-6-methyltetrahydro-2H-pyran-2-yl)oxy)-3-((R)-1-isobutylpyrrolidin-3-yl)-8-methoxy-4,6,8,10,12,12-hexamethyl-1-oxa-4-azacyclotridecane-11,13-dione] | > 32 µg/mL | 4 to 32 µg/mL (≈ 6.39 to 51.1 µM) | > 32 µg/mL | < 4 µg/mL | 4 to 32 µg/mL (≈ 6.39 to 51.1 µM)
